Data from article PMC2799665.

Assay: End-to-end contact formation (no covalent bond): MR121 oxazine dye fluorescence quenched by C-terminal Trp through van der Waals contact/stacking; ns-resolved FCS; single-exponential fit over 6-300 ns with two-state model
Details: the molecule shown is the open-chain precursor; water (aqueous solution); 20.0 °C

SMILES	end-to-end contact formation time constant (ns (closing time constant tau+ = 1/k+))
CCN1CCCc2cc3c(cc21)Oc1cc2c(cc1=N3)CCC[N+]=2CCCC(=O)NCC(=O)N[C@@H](CO)C(=O)NCC(=O)N[C@@H](CO)C(=O)NCC(=O)N[C@@H](CO)C(=O)NCC(=O)N[C@@H](CO)C(=O)NCC(=O)N[C@@H](CO)C(=O)N[C@@H](Cc1c[nH]c2ccccc12)C(=O)[O-] [MR121-Gly-Ser-Gly-Ser-Gly-Ser-Gly-Ser-Gly-Ser-Trp-O-]	20.5
CCN1CCCc2cc3c(cc21)Oc1cc2c(cc1=N3)CCC[N+]=2CCCC(=O)NCC(=O)N[C@@H](CO)C(=O)NCC(=O)N[C@@H](CO)C(=O)NCC(=O)N[C@@H](CO)C(=O)NCC(=O)N[C@@H](CO)C(=O)NCC(=O)N[C@@H](CO)C(=O)NCC(=O)N[C@@H](CO)C(=O)NCC(=O)N[C@@H](CO)C(=O)N[C@@H](Cc1c[nH]c2ccccc12)C(=O)[O-]	32.7
CCN1CCCc2cc3c(cc21)Oc1cc2c(cc1=N3)CCC[N+]=2CCCC(=O)NCC(=O)N[C@@H](CO)C(=O)NCC(=O)N[C@@H](CO)C(=O)NCC(=O)N[C@@H](CO)C(=O)NCC(=O)N[C@@H](CO)C(=O)NCC(=O)N[C@@H](CO)C(=O)NCC(=O)N[C@@H](CO)C(=O)NCC(=O)N[C@@H](CO)C(=O)NCC(=O)N[C@@H](CO)C(=O)NCC(=O)N[C@@H](CO)C(=O)N[C@@H](Cc1c[nH]c2ccccc12)C(=O)[O-]	48.9
CCN1CCCc2cc3c(cc21)Oc1cc2c(cc1=N3)CCC[N+]=2CCCC(=O)NCC(=O)N[C@@H](CO)C(=O)NCC(=O)N[C@@H](CO)C(=O)NCC(=O)N[C@@H](CO)C(=O)N[C@@H](Cc1c[nH]c2ccccc12)C(=O)[O-] [MR121-Gly-Ser-Gly-Ser-Gly-Ser-Trp-O-]	17.6
CCN1CCCc2cc3c(cc21)Oc1cc2c(cc1=N3)CCC[N+]=2CCCC(=O)NCC(=O)N[C@@H](CO)C(=O)NCC(=O)N[C@@H](CO)C(=O)NCC(=O)N[C@@H](CO)C(=O)NCC(=O)N[C@@H](CO)C(=O)NCC(=O)N[C@@H](CO)C(=O)NCC(=O)N[C@@H](CO)C(=O)NCC(=O)N[C@@H](CO)C(=O)NCC(=O)N[C@@H](CO)C(=O)NCC(=O)N[C@@H](CO)C(=O)NCC(=O)N[C@@H](CO)C(=O)NCC(=O)N[C@@H](CO)C(=O)NCC(=O)N[C@@H](CO)C(=O)N[C@@H](Cc1c[nH]c2ccccc12)C(=O)[O-]	68.4
CCN1CCCc2cc3c(cc21)Oc1cc2c(cc1=N3)CCC[N+]=2CCCC(=O)NCC(=O)N[C@@H](CO)C(=O)NCC(=O)N[C@@H](CO)C(=O)NCC(=O)N[C@@H](CO)C(=O)NCC(=O)N[C@@H](CO)C(=O)NCC(=O)N[C@@H](CO)C(=O)NCC(=O)N[C@@H](CO)C(=O)NCC(=O)N[C@@H](CO)C(=O)NCC(=O)N[C@@H](CO)C(=O)NCC(=O)N[C@@H](CO)C(=O)NCC(=O)N[C@@H](CO)C(=O)NCC(=O)N[C@@H](CO)C(=O)NCC(=O)N[C@@H](CO)C(=O)NCC(=O)N[C@@H](CO)C(=O)NCC(=O)N[C@@H](CO)C(=O)NCC(=O)N[C@@H](CO)C(=O)N[C@@H](Cc1c[nH]c2ccccc12)C(=O)[O-]	103
CCN1CCCc2cc3c(cc21)Oc1cc2c(cc1=N3)CCC[N+]=2CCCC(=O)NCC(=O)N[C@@H](CO)C(=O)NCC(=O)N[C@@H](CO)C(=O)N[C@@H](Cc1c[nH]c2ccccc12)C(=O)[O-] [MR121-Gly-Ser-Gly-Ser-Trp-O-]	14.6
